Measurements from patent US9403806B1, “Cognition enhancing compounds and compositions, methods of making, and methods of treating” (NeuroSolis, Inc., priority 2010, dated 2016).
Read-outs that look alike come from different tables or passages of the source.

Experiments:
CD-I mice = assay: Apomorphine induced climbing model of psychosis; type: in vivo; conditions: APO 2 mg/kg alone
Protocol: As described in Costall et. al. European Journal of Pharmacology 1978, 50, 39. individual CD-I mice, 1-2 months old, were placed in a cylindrical wire mesh cage (13.2 cm high×13.2 cm diameter) constructed of steel wire 1 mm thick spaced at 1.2 cm^2. Cylinders were placed in a standard OptiMICE mouse cage (29×32×9×29 cm and 14 cm high) with adequate wood chip bedding provided. Observations of climbing (defined as 3 or more paws of the ground) were carried out every 5 minutes at a duration of 1 minute for […]. Animals were injected subcutaneously under isoflurane anesthesia with test compounds, reference compounds, which included clozapine, haloperidol, olanzapine and xanomeline, or PBS as a control. This was followed 5 minutes later by 2 mg/kg apomorphine hydrochloride. All drugs were dissolved in PBS or a mixture of (by volume) 96% PBS and 4% hydroxypropyl-beta-cyclodextrin, and dosed at a rate of 5 ml per kilogram of body weight. Following injections, animals were replaced in the mesh cages and observed for climbing (defined as 3 or more paws off the ground) every 5 minutes for 1 minute for 60 minutes after dosing.

[1] = molecular target: T1, human muscarinic M1 receptors (Homo sapiens, UniProt P11229); type: cell-based; conditions: for huM1/A9L Smax: percentage of maximal stimulation by carbachol; for huM1/A9L Potency relative to carbachol: relative to the potency of carbachol at its EC50
T1 construct: host or cells: A9L cells
T1 sequence (P11229 1-460): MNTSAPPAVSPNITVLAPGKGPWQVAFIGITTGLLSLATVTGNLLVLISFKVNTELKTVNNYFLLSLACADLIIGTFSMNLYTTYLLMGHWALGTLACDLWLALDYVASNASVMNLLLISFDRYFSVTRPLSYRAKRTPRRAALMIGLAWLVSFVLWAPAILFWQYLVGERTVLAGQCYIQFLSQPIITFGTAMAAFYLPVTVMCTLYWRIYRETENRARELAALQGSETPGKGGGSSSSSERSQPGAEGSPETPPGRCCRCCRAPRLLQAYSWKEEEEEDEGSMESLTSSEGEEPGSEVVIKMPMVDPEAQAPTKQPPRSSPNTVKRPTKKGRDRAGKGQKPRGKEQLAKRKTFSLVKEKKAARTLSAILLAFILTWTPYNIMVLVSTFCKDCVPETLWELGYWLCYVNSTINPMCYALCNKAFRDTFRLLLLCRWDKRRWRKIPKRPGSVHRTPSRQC

[2] = molecular target: T2, human muscarinic M3 receptors (Homo sapiens, UniProt P20309); type: cell-based; conditions: for huM3/A9L Smax: percentage of maximal stimulation by carbachol; for huM3/A9L Potency relative to carbachol: relative to the potency of carbachol at its EC50
T2 construct: host or cells: A9L cells
T2 sequence (P20309 whole entry): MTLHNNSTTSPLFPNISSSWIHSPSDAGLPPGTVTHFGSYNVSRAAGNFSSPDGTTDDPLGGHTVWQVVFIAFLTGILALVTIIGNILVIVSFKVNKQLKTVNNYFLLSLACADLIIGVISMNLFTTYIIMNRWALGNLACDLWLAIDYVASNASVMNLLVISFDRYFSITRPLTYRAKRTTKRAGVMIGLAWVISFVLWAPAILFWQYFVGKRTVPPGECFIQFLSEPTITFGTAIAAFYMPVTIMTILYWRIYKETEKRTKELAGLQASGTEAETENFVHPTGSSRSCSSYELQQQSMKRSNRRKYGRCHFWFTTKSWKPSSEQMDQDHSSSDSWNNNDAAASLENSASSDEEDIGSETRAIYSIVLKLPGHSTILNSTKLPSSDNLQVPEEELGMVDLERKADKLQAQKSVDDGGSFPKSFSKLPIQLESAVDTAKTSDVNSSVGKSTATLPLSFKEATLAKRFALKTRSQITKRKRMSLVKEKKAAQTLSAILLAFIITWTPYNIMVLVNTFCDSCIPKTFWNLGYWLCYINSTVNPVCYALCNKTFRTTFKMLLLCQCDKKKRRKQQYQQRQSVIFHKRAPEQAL

[3] = tested on: muscarinic M1 receptors in the hippocampus; assay: In vivo inositol phosphate increase in hippocampus, Example 44; design: species or system Long Evans Hooded rats; conditions: rat, 3 mg/kg sc
Protocol: (§1) In lithium chloride-treated laboratory rodents, engagement of muscarinic M1 receptors in the hippocampus may usefully be evaluated in vivo by measuring the increase in the tissue of inositol phosphate (Bymaster F P et al Brain Res 795 (1998) 179-190). This may also be extended to measure engagement of muscaric M3 receptors in the salivary glands.
(§2) Experimental compounds were administered subcutaneously at 3 mg/kg using standard techniques to Long Evans Hooded rats weighing 225 to 350 g, and which had been pretreated with a subcutaneous injection of lithium chloride at a suitable dose between 3 and 5 mmole/kg. At suitable times the animals were briefly anesthetized using 5% isoflurane and euthanized by decapitation. The brains and submaxillary salivary glands were rapidly dissected out, and the hippocampuses were dissected from the brains. The dissected tissues were homogenized in a suitable volume of ice-cold phosphate-buffered saline containing 10 mM lithium chloride (pH=7.4) using a tissue homogenizer, and used immediately or frozen in aliquots at −80° C. for future use. The concentration of inositol-1-phosphate was determined in the homogenates using the […] IP-One Terbium TR-FRET assay kit (Cisbio Bioassays, cat. #62IPAPEJ) according to the manufacturer's instructions.

[4] = tested on: muscarinic M3 receptors in the salivary glands; assay: In vivo inositol phosphate increase in salivary glands, Example 44; design: species or system Long Evans Hooded rats; conditions: rat, 3 mg/kg sc
Protocol: as §1, §2

[5] = tested on: pooled male human liver microsomes; assay: Metabolism in human liver microsomes, Example 45; type: in vitro ADME
Protocol: Aliquots were removed every 2 hours, and 1% formic acid was added to halt the reaction. Samples were centrifuged, filtered through 0.2 micron spinfilter, and the amount of each compound in the supernatants was quantitated using LC/MS/MS as follows. The ultra-filtrates were subjected to reverse-phase liquid chromatography using a 150×2.1 mm Agilent C8-reverse phase column on a Shimadzu Prominence LC, eluting the compound with a gradient of 2%-50% acetonitrile+0.1% formic acid over 5 minutes. The concentration of the compound in the column effluent was measured using an Applied Biosystems API-3200 triple quadrupole mass spectrometer equipped with a Turbo V source (electrospray sample injection) system. The counts of the characteristic parent ions of the protonated compound and product ions were converted to concentration by comparison with a standard calibration curve. The parent/daughter ion pairs that were monitored for each compound were: 166.0/82.0 (105), 166.0/82.0 (106b), 166.0/82.0 (106a), 169.0/83.0 (136), 168.2/83.0 (121), 168.1/83.0 (122a), 168.1/83.0 (122b), 170.2/83.0 (134), 168.2/84.1 (135), 168.1/84.1 (137) and 169.2/82.1 (138).

in vitro = in vitro ADME; conditions: pH 7.4, 24 hours, room temperature; for Papp at 24 h, 400 µM: PAMPA, pH 7.4, 400 μM, read-out: PAMPA Permeability Coefficient (×10^6)
Protocol: PAMPA is a useful in vitro model for predicting the passive diffusion of drugs across the blood-brain barrier (Li, D et al Eur jour of Med Chem 38 (2003) 223-232).
Compounds were diluted in a 100 mM phosphate buffer (pH 7.4) to a concentration of 400 μM and the stock solutions were placed into a 96-well filter plate (Millipore, #MAIPN4510) pre-wetted with 20 mg/mL porcine brain polar lipid extract in 100% dodecane (Avanti, #131022) and placed into a 96-well acceptor plate (Millipore, #MSSACCEPTOR) whose wells were filled with the same phosphate buffer as in the filter plate. This assembly was incubated at room temperature for 24 hours. The experiment was halted by separating the filter plate from the acceptor plate. Aliquots were removed from the filter plate wells, acceptor plate wells, and stock solutions, and 1% trifluoroacetic acid was added to each. All solutions were measured by LC/UV, and passive diffusion rates were calculated using the peak area values (Avdeef, Alex. 2003. Page 147 in Absorption and Drug Development. Hoboken, N.J.: John Wiley & Sons).

[6] = Blood and brain concentrations (rats), tail vein injection; type: in vivo, Long-Evans Hooded rats; conditions: rat; for Kp at 1 h: brain and plasma, intravenous, Table 114, read-out: Brain/Plasma Ratio
Protocol: Long-Evans Hooded rats (Charles River: male, 230-300 g) were dosed with solutions of test compounds in PBS by tail vein injection. The dose for all compounds was 3 mg/kg. At one hour, the animals were anesthetized with isoflurane, and then euthanized by decapitation. Trunk blood was collected into a 1.5 mL microcentrifuge tube containing 15 U Heparin, and the plasma recovered after centrifugation. Brains were dissected, weighed, immediately chilled to 4° C., and homogenized using a PowerGen 125 homogenizer in five volumes of ice-cold 2% formic acid. Proteins were precipitated from plasma and brain homogenate with nine and five volumes respectively of ice-cold 2% formic acid and clarified by centrifugation. The supernatant was ultra-filtered by centrifugation through a 3K MWCO spin column (Pall Life Sciences), following the manufacturer's instructions. The concentration of compound in the ultra-filtrate was subjected to reverse-phase liquid chromatography using a 150×2.1 mm Agent C8 reverse-phase column on a Shimadzu Prominence LC, eluting the compounds with a gradient of 2% to 50% of acetonitrile+0.1% formic acid for all compounds. The concentration of the compound in the column effluent was measured using an Applied Biosystems API-3200 triple quadrupole mass spectrometer equipped with an electrospray sample injection system. The counts of the characteristic parent and product ions of each test compound were converted to concentration units by comparison with a standard curve.

[7] = as above; type: in vivo, Long-Evans Hooded rats; conditions: rat, 3 mg/kg tail vein injection; for half-life: male, Long-Evans Hooded, plasma, iv, 3 mg/kg, read-out: Plasma Terminal Half-life (converted)
[8] = 3 mg/kg tail vein injection, read-out: Brain Concentration at 1 hr
[9] = male, Long-Evans Hooded, 3 mg/kg
[10] = male, Long-Evans Hooded, in vivo, 3 mg/kg, 3 mg/kg tail vein injection, read-out: Brain Concentration at 1 hr
[11] = male, Long-Evans Hooded, in vivo, 3 mg/kg, 3 mg/kg tail vein injection, read-out: Plasma Concentration at 1 hr

Structure (SMILES)	Climbing Mean (CD-I mice) [s]	huM1/A9L Smax [1] [%]	huM1/A9L Potency relative to carbachol [1]	huM3/A9L Smax [2] [%]	huM3/A9L Potency relative to carbachol [2]	Increase in Inositol Phosphate in Hippocampus/Control ([3]; 5 mmole/kg LiCl, 3 mg/kg) [%]	Increase in Inositol Phosphate in Salivary Gland/Control ([4]; 5 mmole/kg LiCl, 3 mg/kg) [%]	Loss at 6 hrs (%) [5] [%]	PAMPA Permeability Coefficient (×10^6) (in vitro; 400 μM)	Brain/plasma ratio ([6]; Table 114, 3 mg/kg)	Plasma Concentration at 1 hr ([6]; 3 mg/kg tail vein injection) [µM]	concentration at 1 h [6, 8] [µM]	Plasma Terminal Half-life [7] [h]	Increase in Inositol Phosphate in Hippocampus/Control ([3]; 3 mmole/kg LiCl) [%]	Increase in Inositol Phosphate in Salivary Gland/Control ([4]; 3 mmole/kg LiCl) [%]	Papp at 24 h, 400 µM (in vitro) [×10⁻⁶ cm/s]	Kp at 1 h [6, 9]	concentration at 1 h [6, 10] [µM]	concentration at 1 h [6, 11] [µM]	half-life [7] [h]
CN1CCc2cccc3c2[C@H]1Cc1ccc(O)c(O)c1-3 [APO, reference compound]	51.7																			
[2H]C([2H])([2H])c1noc(C23CNC([2H])([2H])C2C3)n1 (stereo not shown) [Compound 135, 5-(2,2-d2-3-azabicyclo[3.1.0]hexan-1-yl)-3-methyl-1,2,4-oxadiazole]		70	1.39	46	0.49	614	194	26	5.40 ×10^6	0.61	13.8	7.7	1.0							
[2H]C1([2H])NC[C@]2(c3nc(C)no3)C[C@H]12 [Compound 122b, 5-((1S,5S)-4,4-d2-3-azabicyclo[3.1.0]hexan-1-yl)-3-methyl-1,2,4-oxadiazole]		47	0.54	28	0.50			13						150	163	3.7	0.58	5.1	8.8	1.3
[2H]C([2H])([2H])c1noc(C23CNC([2H])([2H])C2C3)n1 (stereo not shown) [Compound 136, 5-(4,4,5-d3-3-azabicyclo[3.1.0]hexan-1-yl)-3-methyl-1,2,4-oxadiazole]		41	0.89	36	0.45	694	231	11				7.4				3.71	0.56		13.6	1.15
[2H]C1([2H])NC[C@@]2(c3nc(C)no3)C[C@@H]12 [Compound 122a, 5-((1R,5R)-4,4-d2-3-azabicyclo[3.1.0]hexan-1-yl)-3-methyl-1,2,4-oxadiazole]		77	1.09	44	0.38			20						487	182	3.93	0.59	5	12.2	0.97
